In patent publication US20060190192A1, “Databases for assessing nucleic acids” (Medical College of Ohio, priority 2005, published 2006):

How the values were obtained:
[1] = test system: cytochrome p450 (CYP) IAI gene; assay: MC RT-PCR with Celi competitive templates: induction of CYPIAI gene expression in β-napthoflavone-exposed BEP2D cells; assay type: cell-based, human; settings: β-napthoflavone 10 μM, control 0.1% DMSO, cDNA loading matched by GAPDH native/competitive template bands
Protocol: (§1) In a second set of experiments, multiplex competitive reverse transcriptase polymerase chain reaction (MC RT-PCR) with competitive templates were prepared by the Celi method to evaluate the cytochrome p450 (CYP) IAI gene in β-napthoflavone-exposed BEP2D cells. The induction of CYPIAI gene expression was evaluated using both MC RT-PCR with Celi competitive templates, and Northern analysis. Competitive templates were prepared for both the CYPIAI and GAPDH genes. The primers used to prepare the competitive template for GAPDH were: […]
The PCR amplification conditions were the same as described for experiments using the competitive templates prepared for GAPDH and GSHPx by the Higuchi method except the annealing temperature was 55 degrees centigrade and the amplification was carried out for 38 cycles.
Because the native and competitive templates separate without prior restriction endonuclease digestion, samples were taken directly from the PCR reaction tube and applied to ethidium bromide stained 3% Nusieve, 1% LE agarose gels. It was then possible to quantify the products by taking a negative photograph of the gel using Polaroid 665 positive/negative instant film, subjecting the negative photograph to densitometry. […]

[2] = test system: cytochrome p450 (CYP) IAI gene; assay: Northern analysis of CYPIAI gene expression in β-napthoflavone-exposed BEP2D cells; assay type: cell-based, human; settings: β-napthoflavone 10 μM vs 0.1% DMSO control, 32P-labeled CYPIAI cDNA probe
Protocol: as §1
RNA from BEP2D cells incubated for varying times with β-napthoflavone (10 μM) was either electrophoresed on a 1% LE formaldehyde denaturing gel for Northern analysis or MC RT-PCR amplified, as described above. For Northern analysis, following transfer of the RNA to GeneScreen, the filters were hybridized with ^32P-labeled CYPIAI cDNA.
FIG. 36A illustrates Northern analysis of RNA obtained from BEP2D cells that were treated with 0.1% DMSO as a control, or, β-napthoflavone in an effort to induce cytochrome p450 IA1 (CYPIA1). FIG. 36B illustrates DNA PCR-amplified from serial dilutions of cDNA from the same cells used in FIG. 36SA. The cDNA was co-amplified in the presence of competitive templates for GAPDH and CYPIAI, according to some embodiments of the instant invention.

O=c1cc(-c2ccccc2)oc2ccc3ccccc3c12 [β-napthoflavone]
band representing the native CYPIAI gene, exposed cells compared to control cells [1]: much more strongly represented
gene expression of the CYPIAI gene [2]: increase
